Results published in patent US11603355B2, “Charged ion channel blockers and methods for use” (Nocion Therapeutics, Inc., priority 2019, dated 2023).
Structures can show the parent of a compound that is named as a salt.

Legend:
[1] = biological target: T1, NaV1.7 (Homo sapiens, UniProt Q15858); experiment: Automated patch clamp (Qube 384), external block of NaV1.7; assay type: cell-based; conditions: IC50, compound in external solution, HEK293 cells, read-out: Nav1.7 Extracellular Inhibition
T1 construct: expressed in transfected cells; host or cells: HEK293 (tetracycline-inducible)
T1 sequence (Q15858 whole entry): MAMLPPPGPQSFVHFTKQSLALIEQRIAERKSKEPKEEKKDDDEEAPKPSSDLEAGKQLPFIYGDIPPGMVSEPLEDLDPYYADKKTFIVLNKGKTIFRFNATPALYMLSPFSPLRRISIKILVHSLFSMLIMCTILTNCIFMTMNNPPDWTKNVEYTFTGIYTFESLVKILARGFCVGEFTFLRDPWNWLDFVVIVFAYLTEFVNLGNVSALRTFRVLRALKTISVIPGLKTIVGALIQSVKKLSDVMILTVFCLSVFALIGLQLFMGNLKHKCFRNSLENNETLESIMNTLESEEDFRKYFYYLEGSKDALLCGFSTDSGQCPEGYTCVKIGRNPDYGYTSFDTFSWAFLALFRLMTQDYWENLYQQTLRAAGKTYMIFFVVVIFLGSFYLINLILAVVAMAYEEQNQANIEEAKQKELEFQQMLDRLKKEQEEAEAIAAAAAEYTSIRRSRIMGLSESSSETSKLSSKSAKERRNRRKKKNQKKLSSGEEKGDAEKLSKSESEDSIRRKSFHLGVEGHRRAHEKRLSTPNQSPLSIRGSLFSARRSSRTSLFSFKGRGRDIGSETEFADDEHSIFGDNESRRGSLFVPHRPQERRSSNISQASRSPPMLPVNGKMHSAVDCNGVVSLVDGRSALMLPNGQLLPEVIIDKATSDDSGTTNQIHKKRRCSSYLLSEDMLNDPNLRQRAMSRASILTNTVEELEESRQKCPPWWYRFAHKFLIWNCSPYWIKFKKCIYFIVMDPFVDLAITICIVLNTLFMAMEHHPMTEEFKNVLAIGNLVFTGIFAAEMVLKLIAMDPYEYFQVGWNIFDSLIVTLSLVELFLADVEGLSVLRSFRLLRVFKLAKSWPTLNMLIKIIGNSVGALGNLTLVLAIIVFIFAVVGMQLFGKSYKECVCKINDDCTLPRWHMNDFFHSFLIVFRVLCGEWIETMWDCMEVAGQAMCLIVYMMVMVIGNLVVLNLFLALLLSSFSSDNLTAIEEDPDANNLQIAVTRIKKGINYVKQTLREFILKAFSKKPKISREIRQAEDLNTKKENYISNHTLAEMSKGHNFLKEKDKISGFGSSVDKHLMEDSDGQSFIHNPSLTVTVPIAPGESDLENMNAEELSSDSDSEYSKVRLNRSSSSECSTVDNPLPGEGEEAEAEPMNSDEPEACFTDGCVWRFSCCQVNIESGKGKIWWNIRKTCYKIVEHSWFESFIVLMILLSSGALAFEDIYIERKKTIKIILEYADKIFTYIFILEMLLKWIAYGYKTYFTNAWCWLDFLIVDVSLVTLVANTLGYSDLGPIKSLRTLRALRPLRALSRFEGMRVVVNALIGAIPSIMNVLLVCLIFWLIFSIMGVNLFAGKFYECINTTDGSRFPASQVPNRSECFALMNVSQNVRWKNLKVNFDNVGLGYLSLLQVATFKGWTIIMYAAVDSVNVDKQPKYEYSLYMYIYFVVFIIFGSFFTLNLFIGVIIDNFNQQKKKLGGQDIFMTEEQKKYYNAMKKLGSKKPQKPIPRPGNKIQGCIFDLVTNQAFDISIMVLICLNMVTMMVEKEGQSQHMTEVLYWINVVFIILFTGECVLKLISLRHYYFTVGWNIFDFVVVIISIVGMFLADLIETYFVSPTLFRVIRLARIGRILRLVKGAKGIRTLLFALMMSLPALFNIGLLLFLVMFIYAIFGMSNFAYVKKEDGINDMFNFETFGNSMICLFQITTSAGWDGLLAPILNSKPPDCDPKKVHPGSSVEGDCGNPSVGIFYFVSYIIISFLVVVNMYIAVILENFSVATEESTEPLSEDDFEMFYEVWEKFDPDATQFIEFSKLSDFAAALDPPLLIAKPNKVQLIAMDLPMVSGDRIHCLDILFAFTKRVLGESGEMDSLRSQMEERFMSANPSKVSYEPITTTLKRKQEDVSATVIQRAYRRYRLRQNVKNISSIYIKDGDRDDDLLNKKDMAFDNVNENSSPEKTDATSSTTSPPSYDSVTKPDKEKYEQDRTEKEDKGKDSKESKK
Method: (§1) NaV1.7 was expressed in HEK293 cells upon induction with tetracycline. Cells were cultured in DMEM containing 10% dialyzed Fetal Bovine Serum (VWR, Radnor, Pa.), 1% Glutamax (VWR, Radnor, Pa.), 1% Penicillin-Streptomycin (VWR, Radnor, Pa.), 100 mg/L Hygromycin (Thermo Fisher Scientific, Waltham, Mass. and 5 mg/L Blasticidin (Alfa Aesar, Haverhill, Mass.). Cells were grown and maintained at 37° C. in a humidified environment containing 10% CO2 in air. Cells were detached from the culture flask for passage and harvested using 0.05% Trypsin-EDTA (Thermo Fisher Scientific, Waltham, Mass.). To induce NaV1.7, cells were induced with tetracycline (0.1-1 μg/mL, IBI Scientific, Peosta, Iowa) the day before recording.
(§2) Before experiments, cells were washed with DPBS (VWR, Radnor, Pa.), digested with Detachin (VWR Radnor, Pa.) and then triturated 10 times in CHO Serum-Free Media (VWR Radnor, Pa.) to resuspend the cells and to break apart cell aggregates. Cells were counted and the final concentration was set at 2-5 million cells per mL.
(§3) The intracellular solution contained the following: 140 mM CsF, 1 mM/5 mM EGTA/CsOH, 10 mM HEPES, 10 mM NaCl, adjusted to pH 7.3 with CsOH, and osmolality to 320 with OSM solution. The external solution contained the following: 145 mM NaCl, 4 mM KCl, 1 mM MgCl2, 2 mM CaCl2), 10 mM HEPES, 10 mM Glucose, adjusted to pH 7.4 with CsOH and osmolality to 305 with OSM solution. The OSM solution was a normal Ringer solution containing (in mM) NaCl 155, HEPES 10, sucrose, KCl 3.5, CaCl2) 1.5, MgCl2 1 adjusted to pH 7.4 with NaOH. All chemicals are from Sigma-Aldrich, St. Louis, Mo. In order to test the degree of internal block by test compounds, the compounds were dissolved in internal solution at the indicated test concentration. […] In order to test the degree of external block by test compounds the compounds were dissolved in external solution at the indicated test concentration.
(§4) Automated Patch Clamps were performed on Qube 384 (Sophion Bioscience, Woburn Mass.) with multihole Qchips at a temperature setting of 22 degrees. The whole cells configuration was formed with default Qube seal and break-in parameter. The membrane potential was held at −100 mV before the voltage protocol began. Two voltage protocols were followed.
(§5) Step 1: Cells were held at −100 mV with a depolarized pulse to −20 mV for 10 ms, the interval was set at 5 s. Currents were corrected by default leak subtraction from every pulse. The duration was set at 5 mins.
(§6) Step 2: Cells were held at −100 mV with a depolarized pulse to −20 mV for 10 ms. The frequency was 5 Hz. Currents were corrected by leak subtraction calculated before step 2. The duration was set at 4 mins.
After Step 2, the external solution was changed with solutions containing test compounds. Qchips were held at −100 mV without pulsing. The total solution switching time was 8 minutes. After the external solution exchange, cells were recorded using the same procedure as step 2 for 10 minutes.
Data analysis was performed by Sophion Analyzer. Data were corrected with control cells (Non-Drug). The IC50 data were plotted with DR-plots/Hill function (a dose-response plot with a Hill fit). Representative examples of the invention were tested for extracellular inhibition of NaV 1.7 in the automated patch clamp assay. Activity Range is reported as IC50: “++++” ([…], “+++” (1-3 μM), “++” ([…]) or “+” (>10 μM). The results are presented below.

[2] = biological target: T1, NaV1.7; experiment: Automated patch clamp (Qube 384), internal block of NaV1.7; assay type: cell-based; conditions: IC50, compound in internal solution, HEK293 cells, read-out: Nav1.7 Intracellular Inhibition
Method: as §1, §2, §3, §4, §5, §6
After Step 2, the Qchip was removed from the recording chamber. The internal solution was changed with solutions containing test compounds. Qchips were held at −100 mV without pulsing after being replaced in the recording chamber. The total solution switching time was 8 minutes. After the internal solution exchange, Cells were recorded and step 2 for repeated for 10 minutes.
Data analysis was performed by Sophion Analyzer. Cells were filtered with minimum 50 MOhm seal resistance and minimum 5 nA starting current. The rundown of the currents was corrected with control cells (Non-Drug). The remaining was calculated by averaging last 3 points in the end of experiments. The base line was calculated as the average of last 3 points of Step 2.
IC50 curves were plotted with DR-plots/Hill function (a dose-response plot with a Hill fit).
Representative examples of the invention were tested for intracellular inhibition of NaV 1.7 in the automated patch clamp assay. Activity Range is reported as IC50: “++++” (<0.3 μM), “+++” (0.3-1 μM), “++” (1-3 μM) or “+” (3-10 μM).

[3] = PAMPA membrane permeability assay; assay type: in vitro ADME; conditions: permeability coefficient, pH 7.4 buffer, GIT lipid, 4 hours incubation
Method: The PAMPA assay (pION, Inc., Woburn Mass.) was used to determine the ability of compounds of the invention to cross an artificial lipid membrane by passive diffusion. Test compounds were dissolved in DMSO (10 mM) and diluted 200-fold in buffer (pION Inc., pH 7.4) to provide 50 uM stock solutions. Buffer (150 μL) was added to a UV blank plate and stock solutions (150 μL) were transferred to a UV reference plate. The blank and reference spectrum were read using a spectrophotometer. Stock solutions (200 μL) were added to the donor plate of the PAMPA sandwich plate and an accept plate painted with GIT lipid (pION Inc, 5) was placed on top. Buffer (200 μL) was added to the acceptor plate and the PAMPA sandwich plate was incubated for 4 hours. Aliquots (150 μL) from the acceptor plate were added to a UV plate and read as acceptor spectrum. Aliquots (150 μL) of the donor solutions were added to a UV analysis plate and read as donor spectrum. The permeability coefficient of test compounds was calculated using PAMPA Explorer™ software (version 3.5.0.4) based on the AUC of the reference plate, the donor plate, and the acceptor plate.
The PAMPA permeability results (10^−6 cm/s) of representative compounds are reported as “+” (<0.1 10^−6 cm/s), “++” (0.1-2.0 10^−6 cm/s), “+++” (2.0-10.010^−6 cm/s) or “++++” (>10.0 10^−6 cm/s).

Compound	IC50 [1]	IC50 [2]	PAMPA (10^−6 cm/s) [3]
Cc1cccc(C)c1NC(=O)C[N+]1(Cc2ccccc2)CCCCC1 [Compound 4]	> 10 µM	0.3 to 1 µM	
CCC(C(=O)Nc1c(C)cccc1C)[N+]1(Cc2ccccc2)CCCCC1 (stereo not shown) [Compound 6]	> 10 µM	0.3 to 1 µM	
Cc1cccc(C)c1NC(=O)C[N+]1(Cc2ccccc2)CCCC(C(=O)NC2CCCC2)C1.[Br-] (stereo not shown) [Compound 60A]		1 to 3 µM	+ (“+” (<0.1 10^−6 cm/s))
Cc1cccc(C)c1NC(=O)C[N+]1(Cc2ccccc2)CCCC(C(=O)OC2CCCCC2)C1.[Br-] (stereo not shown) [Compound 51A]	3 to 10 µM	3 to 10 µM	+ (“+” (<0.1 10^−6 cm/s))
Br.CCCCOC(=O)C1CCC[N+](CC(=O)Nc2c(C)cccc2C)(Cc2ccccc2)C1 (stereo not shown) [Compound 49A]	3 to 10 µM	1 to 3 µM	+ (“+” (<0.1 10^−6 cm/s))
Cc1cccc(C)c1NC(=O)C[N+]1(Cc2ccccc2)CCCC(C(=O)NCC(C)C)C1.[Br-] (stereo not shown) [Compound 58A]	3 to 10 µM	1 to 3 µM	+ (“+” (<0.1 10^−6 cm/s))
Cc1cccc(C)c1NC(=O)C[N+]1(Cc2ccccc2)CCCC1 [Compound 5]	> 10 µM	1 to 3 µM	

Continued, values first:

IC50 [1]	IC50 [2]	PAMPA (10^−6 cm/s) [3]	Compound
> 10 µM	3 to 10 µM		Cc1cccc(C)c1S(=O)(=O)CC[N+]1(Cc2ccccc2)CCCCCC1 [Compound 88A, 1-benzyl-1-(2-((2,6-dimethylphenyl)sulfonyl)ethyl) azepan-1-ium bromide]
	1 to 3 µM	+ (“+” (<0.1 10^−6 cm/s))	Cc1cccc(O)c1NC(=O)C[N+]1(Cc2ccccc2)CCCCCC1.[Br-] [Compound 79A, 1-benzyl-1-(2-((2-hydroxy-6-methylphenyl)amino)-2-oxoethyl) azepan-1-ium formate]
	3 to 10 µM	+ (“+” (<0.1 10^−6 cm/s))	Cc1cccc(C)c1NCC[N+]1(Cc2ccccc2)CCCCCC1 [Compound 84A, 1-benzyl-1-(2-((2,6-dimethylphenyl)amino)ethyl) azepan-1-ium trifluoroacetate]
1 to 3 µM	0.3 to 1 µM		Cc1cccc(C)c1OC(=O)C[N+]1(Cc2ccccc2)CCCCCC1 [Compound 83A, 1-benzyl-1-(2-(2,6-dimethylphenoxy)-2-oxoethyl) azepan-1-ium 2,2,2-trifluoroacetate]
> 10 µM	1 to 3 µM		Cc1cccc(C)c1N1CCCC([N+]2(Cc3ccccc3)CCCCC2)C1=O (stereo not shown) [Compound 92A]
3 to 10 µM	1 to 3 µM	+ (“+” (<0.1 10^−6 cm/s))	Cc1cccc(C)c1NC(=O)C[N+]1(Cc2ccccc2)CCCC(C(=O)N2CCCCCC2)C1 (stereo not shown) [Compound 64A]
> 10 µM	3 to 10 µM		CC[N+](CC)(CCS(=O)(=O)c1c(C)cccc1C)Cc1ccccc1 [Compound 87A, N-benzyl-2-((2,6-dimethylphenyl)sulfonyl)-N, N-diethylethan-1-aminium bromide]
	3 to 10 µM	+ (“+” (<0.1 10^−6 cm/s))	Cc1cccc(C(=O)N(C)C)c1NC(=O)C[N+]1(Cc2ccccc2)CCCCCC1.[Br-] [Compound 78A]
